Series [1] concerns male rabbits. The experiment in a line: Action to intra urethral pressure and blood pressure, intravenous administration. It counts as in vivo. The note with it: i.v.; for Selectivity (B/A): BP(ED30%↑) / IUP(ED150%↑); for ED (30%) / ED (150%): Oryctolagus cuniculus, iv, anesthetized male rabbits; for ED (30%): dose increasing blood pressure to an extent of 30%, read-out: BP(B) [BP(ED30%↑)] (converted); for ED (150%): dose increasing intra urethral pressure to an extent of 150%, read-out: IUP(A) [IUP(ED150%↑)]. How it is done:
(§1) The experiment was conducted using male rabbits of body weight of 1.4-3.1 kg under fasted condition. The animals were fixed at backs under uretrane(1.2g/kg s.c.) anesthesia, abdomen was subjected to a midline incision and bladder was exposed. In order to prevent the urine stored in the bladder on the intra urethral pressure, the urine in the bladder was compulsorily discharged out of the body. After that, a catheter was inserted into both ureters and the urine discharged from kidney was introduced outside.
(§2) The intra urethral pressure(IUP) at the urethra tract of about 0.5-1 cm distance from the neck of the bladder was measured using a microtip transducer transducer equipped with a baloon (filled with physiological saline solution) at the top end. Further, polyethylene tube was inserted into femoral artery to measure the blood pressure (BP).
The drug to be tested was injected into the vein of ear every fifteen minutes and the maximum responses of the increasing action of intra urethral pressure tract and of the increasing action of blood pressure were measured at each dose.

In a further series the test system is mice (ddY-strain, male). The experiment in a line: Acute toxicity, oral, mice. Format: in vivo. Conditions: observed two weeks. How it is done:
(§3) Numbers of mice (ddY-strain, male, 6-8 weeks age) and rats (SD strain, male, 6-7 weeks age) in each group were 4 and 6, respectively.
(§4) The drug to be tested was orally administered at the dose of 10 ml/kg using an oral probe to the animals which were fasted since one day before (for 16-18 hours). After giving the drug, the animals were returned to the state where both feed and water were available and the general symptom and the dead cases, if any, were checked for two weeks. The drug was suspended in physiological saline solution containing 0.5% of methylcellulose (0.5% MC) and the suspension was given to the animals by oral route.

The nature of series [2]: Acute toxicity, oral, rats. Format: in vivo. Conditions: rat, in vivo, SD rats, read-out: Rats LD₅₀. How it is done:
as §3, §4

Another series deals with rats (SD strain, male). The experiment in a line: Acute toxicity, oral, rats. Format: in vivo. Conditions: observed two weeks. How it is done:
as §3, §4

The subject of the next series is smooth muscle of urethra. The experiment in a line: Contraction of isolated smooth muscle of urethra (Magnus vessel, cumulative concentration/response curves). Format: cell-based, rabbits. Conditions: for EC50: Oryctolagus cuniculus, female rabbit urethra smooth muscle, contraction. How it is done:
(§5) The experiment was conducted using female rabbits of 2 to 3.5 kg body weight.
(§6) The animals were killed by draining the blood out under anesthetizing with pentobarbital (30 mg/kg, by intravenous injection) and smooth muscle of urethra and femoral artery were excised. Each of the excised samples was placed in a Magnus vessel filled with a modified Krebs solution (at 37°C; under mixed gas) and both smooth muscle of urethra and femoral artery were suspended with 1 g load.
(§7) The drug to be tested was accumulated to contract the samples whereby the concentration/response curves were obtained wherefrom ED₅₀ (M) and pD₂ were calculated and the selectivity to urethra was determined.

Another series concerns femoral artery. The series can be described thus: Contraction of isolated femoral artery (Magnus vessel, cumulative concentration/response curves). Format: cell-based, rabbits. Conditions: Oryctolagus cuniculus, female rabbit femoral artery, contraction. How it is done: as §5, §6, §7
The test system of series [3] is male rabbits. The experiment in a line: Action to intra urethral pressure and blood pressure, administration to duodenum. Format: in vivo. How it is done: as §1, §2
Abdomen right above stomach was subjected to a midline incision and, after that, the drug to be tested suspended in 0.5% methyl cellulose (0.5% MC) was administered at the dose of 0.5ml/kg to the duodenum. […] The above administration to duodenum corresponded to oral administration as the administration into digestive organ in anethetized animals.

[4] abbreviates: read-out: ED₅₀ Femoral Artery(B).
Setting [5] is: read-out: pD₂ Femoral Artery(B).
Where [6] appears, read: 1 mg/kg i.d., 10 min after administration.
Where [7] appears, read: 1 mg/kg i.d., 20 min after administration.
Setting [8] is: 1 mg/kg i.d., 30 min after administration.
[9] abbreviates: 1 mg/kg i.d., 60 min after administration.
[10] abbreviates: 1 mg/kg i.d., 90 min after administration.
The mark [11] stands for this setting: 1 mg/kg i.d., 120 min after administration.
[12] abbreviates: 1 mg/kg i.d., 180 min after administration.
Where [13] appears, read: 3 mg/kg i.d., 10 min after administration.
Setting [14] is: 3 mg/kg i.d., 20 min after administration.
The mark [15] stands for this setting: 3 mg/kg i.d., 30 min after administration.
Setting [16] is: 3 mg/kg i.d., 60 min after administration.
Setting [17] is: 3 mg/kg i.d., 90 min after administration.
Where [18] appears, read: 3 mg/kg i.d., 120 min after administration.
Setting [19] is: 3 mg/kg i.d., 180 min after administration.

Counter-ions that a name gives are not always drawn. Like-named read-outs stand apart in the source and are kept apart here. Marks after values point to notes of the source that are not given here.

In the case of `CS(=O)(=O)Nc1ccc(F)c(C(O)CN)c1` (racemic) [(49A), (±)-3'-(2-Amino-1-hydorxyethyl)-4'-fluoromethanesulfonanilide hydrochloride], in the series on male rabbits [1], the “Selectivity (B/A)” value was found to be 2.2, the ED (30%) is 0.044 mg/kg and the ED (150%) stood at 0.02 mg/kg. For the same compound, the “Mice Dead/ Total” value in the series on mice (ddY-strain, male) (1000 mg/kg) is on record as 0 / 4. The LD50 at 336 h in series [2] was greater than 500 mg/kg. Moreover, in the series with rats (SD strain, male) (100 mg/kg), the “Rats Dead/ Total” value is given as 0 / 6. Moreover, the “Rats Dead/ Total” value in the series on rats (SD strain, male) (500 mg/kg) was 1 / 6.

On to `CS(=O)(=O)Nc1cccc([C@@H](O)CN)c1.Cl` [(24B), (R)-(-)-3'-(2-Amino-1-hydroxyethyl)-methanesulfonanilide hydrochloride, reference compound], for which the “Selectivity (B/A)” value in the series on male rabbits [1] (hydrochloride) came to 1.0. The ED (30%) in the series on male rabbits [1] was 0.019 mg/kg. The ED (150%) with male rabbits [1] is 0.019 mg/kg. Also, the “Mice Dead/ Total” value in the series on mice (ddY-strain, male) (1000 mg/kg) is 0 / 4. Further, in series [2], the LD50 at 336 h was 23.2 mg/kg. Further, the “Rats Dead/ Total” value in the series on rats (SD strain, male) (5 mg/kg) is on record as 0 / 6; in the series with rats (SD strain, male) (10 mg/kg), 2 / 6; in the series on rats (SD strain, male) (30 mg/kg), 4 / 6; in the series with rats (SD strain, male) (100 mg/kg), 5 / 6.

On to `CS(=O)(=O)Nc1ccc(F)c([C@@H](O)CN)c1.O=C(O)C(O)C(O)C(=O)O` [(49K), (R)-(-)-3'-(2-Amino-1-hydroxyethyl)-4'-fluoromethanesulfonanilide L-(+)-tartrate], for which, in the series with male rabbits [1], the “Selectivity (B/A)” value came to 6.6. In addition, in the series on male rabbits [1], the ED (30%) is 0.059 mg/kg. Further, the ED (150%) in the series on male rabbits [1] was determined as 0.009 mg/kg. Besides, the “Mice Dead/ Total” value with mice (ddY-strain, male) (1000 mg/kg) was 0 / 4; in the series on mice (ddY-strain, male) (3000 mg/kg), 0 / 4. Moreover, the LD50 at 336 h in series [2] was greater than 1000 mg/kg. In addition, the “Rats Dead/ Total” value in the series with rats (SD strain, male) (100 mg/kg) was 0 / 6; with rats (SD strain, male) (300 mg/kg) it was 0 / 6; in the series with rats (SD strain, male) (500 mg/kg), 2 / 6; in the series on rats (SD strain, male) (1000 mg/kg), 1 / 6.

Consider `CNCC(O)c1cccc(NS(C)(=O)=O)c1` (stereo not drawn) [Amidephrine, reference compound], for which the “Selectivity (B/A)” value in the series with smooth muscle of urethra (ED₅₀ femoral artery / ED₅₀ urethra) is reported as 0.18. Moreover, the EC50 in the series with smooth muscle of urethra (read-out: ED₅₀ Urethra(A)) is 10.8 µM; in the series with smooth muscle of urethra (read-out: pD₂ Urethra(A)), 10.7 µM; with femoral artery (setting [4]) it was 1.96 µM; in the series with femoral artery (setting [5]), 1.95 µM. Also, the “Change(%) BP” value in the series on male rabbits [3] (setting [6]) is on record as 2.4%; in the series on male rabbits [3] (setting [7]), -0.1%; in the series with male rabbits [3] (setting [8]), 2.2%; with male rabbits [3] (setting [9]), 7.2* %; in the series with male rabbits [3] (setting [10]) it was 14.3** %; in the series on male rabbits [3] (setting [11]) it was 10.3* %. In addition, the “Change(%) BP” value in the series on male rabbits [3] (setting [12]) is on record as 3.7** %; in the series with male rabbits [3] (setting [13]) it was 5.8%; with male rabbits [3] (setting [14]), 3.7%; in the series on male rabbits [3] (setting [15]) it was 4.1%; in the series on male rabbits [3] (setting [16]) it was 20.7** %; with male rabbits [3] (setting [17]), 34.4** %. In addition, the results for the “Change(%) BP” value in the series with male rabbits [3] (setting [18]) and in the series with male rabbits [3] (setting [19]) were 39.1** % and 31.1** %, respectively. Also, the “Change(%) IUP” value in the series on male rabbits [3] (setting [6]) was 0.7%; in the series on male rabbits [3] (setting [7]), 0.6%; in the series on male rabbits [3] (setting [8]), 8.3%; in the series with male rabbits [3] (setting [9]) it was 47.6** %; in the series with male rabbits [3] (setting [10]), 56.8** %; in the series with male rabbits [3] (setting [11]), 46.1* %. Besides, the “Change(%) IUP” value with male rabbits [3] (setting [12]) is recorded as 32.1%; in the series on male rabbits [3] (setting [13]), -4.5%; in the series with male rabbits [3] (setting [14]), 15.9%; in the series on male rabbits [3] (setting [15]), 47.1** %; in the series with male rabbits [3] (setting [16]), 108.5** %; with male rabbits [3] (setting [17]), 107.8** %. The results for the “Change(%) IUP” value in the series on male rabbits [3] (setting [18]) and in the series on male rabbits [3] (setting [19]) were 92.7** % and 92.2** %, respectively. Moreover, the “Mice Dead/ Total” value in the series on mice (ddY-strain, male) (1000 mg/kg) is listed as 0 / 4; with mice (ddY-strain, male) (3000 mg/kg) it was 3 / 4. Besides, the LD50 at 336 h in series [2] came to 12.4 mg/kg. For the same compound, the “Rats Dead/ Total” value in the series on rats (SD strain, male) (5 mg/kg) was 0 / 6; with rats (SD strain, male) (10 mg/kg), 3 / 6; in the series with rats (SD strain, male) (20 mg/kg), 4 / 6; in the series with rats (SD strain, male) (30 mg/kg), 6 / 6.

For the compound `CNC[C@H](O)c1cccc(O)c1` [Phenylephrine], the EC50 with smooth muscle of urethra (read-out: ED₅₀ Urethra(A)) worked out at 3.75 µM; with smooth muscle of urethra (read-out: pD₂ Urethra(A)), 3.72 µM; with femoral artery (setting [4]), 0.48 µM; in the series with femoral artery (setting [5]), 0.479 µM. Besides, in the series with male rabbits [1], the ED (30%) was 0.019 mg/kg. The ED (150%) with male rabbits [1] is 0.037 mg/kg.

Values taken from patent EP0538469A1, “SULFONANILIDE DERIVATIVE AND MEDICINE” (NIPPON SHINYAKU COMPANY, LIMITED, priority 1990, dated 1991).
